According to PubChem BioAssay AID248 (DTP/NCI, 2004):
Several values for one entry are separate records, joined by “and”; a condition that tells them apart may be missing. Identical values can stand only once. Inconclusive results and toxic doses are left out. Rule as the data show it: active = T/C of 150% or more; inactive = T/C below 125%.

Tested on: L1210 leukemia ip in BDF1 mice, survival T/C
Assay: NCI In Vivo Anticancer Drug Screen. Data for tumor model L1210 Leukemia (intraperitoneal) in B6D2F1 (BDF1) mice
Details: endpoint: mean survival time, higher = longer survival
Summary of the method: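 Transplanted-tumor mice were given test agent; controls received vehicle only. Survival readings from the two groups were divided (treated over control).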

[1] = dose: 100.0 mg/kg/injection, schedule: Q04DX002 (ip), vehicle: Klucel (hydroxypropylcellulose) (HPC)
[2] = dose: 200.0 mg/kg/injection, schedule: Q04DX002 (ip), vehicle: Klucel (hydroxypropylcellulose) (HPC)
[3] = dose: 400.0 mg/kg/injection, schedule: Q04DX002 (ip), vehicle: Klucel (hydroxypropylcellulose) (HPC)
[4] = dose: 100.0 mg/kg/injection, schedule: Q01DX001 (ip), vehicle: Klucel (hydroxypropylcellulose) (HPC)
[5] = dose: 100.0 mg/kg/injection, schedule: Q01DX009 (ip), vehicle: Klucel (hydroxypropylcellulose) (HPC)
[6] = dose: 100.0 mg/kg/injection, schedule: Q04DX003 (ip), vehicle: Klucel (hydroxypropylcellulose) (HPC)
[7] = dose: 200.0 mg/kg/injection, schedule: Q01DX001 (ip), vehicle: Klucel (hydroxypropylcellulose) (HPC)
[8] = dose: 200.0 mg/kg/injection, schedule: Q01DX009 (ip), vehicle: Klucel (hydroxypropylcellulose) (HPC)
[9] = dose: 200.0 mg/kg/injection, schedule: Q04DX003 (ip), vehicle: Klucel (hydroxypropylcellulose) (HPC)
[10] = dose: 400.0 mg/kg/injection, schedule: Q01DX001 (ip), vehicle: Klucel (hydroxypropylcellulose) (HPC)
[11] = dose: 400.0 mg/kg/injection, schedule: Q04DX003 (ip), vehicle: Klucel (hydroxypropylcellulose) (HPC)
[12] = dose: 100.0 mg/kg/injection, schedule: Q04DX003 (ip), vehicle: saline with Tween-80
[13] = dose: 200.0 mg/kg/injection, schedule: Q04DX003 (ip), vehicle: saline with Tween-80
[14] = dose: 400.0 mg/kg/injection, schedule: Q01DX009 (ip), vehicle: Klucel (hydroxypropylcellulose) (HPC)
[15] = dose: 400.0 mg/kg/injection, schedule: Q04DX003 (ip), vehicle: saline with Tween-80
[16] = dose: 100.0 mg/kg/injection, schedule: Q01DX009 (ip), vehicle: saline
[17] = dose: 200.0 mg/kg/injection, schedule: Q01DX009 (ip), vehicle: saline
[18] = dose: 100.0 mg/kg/injection, schedule: Q01DX009 (ip), vehicle: saline with Tween-80
[19] = dose: 200.0 mg/kg/injection, schedule: Q01DX009 (ip), vehicle: saline with Tween-80

Measured: T/C

CCCCOP(=O)(/C=C/c1ccc(NC(C)=O)cc1)OCCCC
inactive: [1] 104 % of control | [2] 96 % of control | [3] 89 % of control

CCCCCCCCCC(=O)NC(=S)Nc1ccc(Br)cc1
inactive: [4] 93 % of control | [5] 93 % of control and 98 % of control | [1] 98 % of control and 91 % of control | [6] 92 % of control | [7] 91 % of control | [8] 91 % of control | [2] 96 % of control and 88 % of control | [9] 94 % of control | [10] 94 % of control | [3] 96 % of control and 88 % of control | [11] 102 % of control

CCCCCOC(=O)CN(CC(=O)OCCCCC)c1ccccc1
inactive: [5] 88 % of control | [12] 101 % of control | [8] 99 % of control | [13] 98 % of control | [14] 91 % of control | [15] 95 % of control

CCCCCCCCCCOCCCCCCCCCC
inactive: dose: 50.0 mg/kg/injection, schedule: Q01DX009 (ip), vehicle: saline 92 % of control | [16] 92 % of control | [17] 89 % of control

O=S1(=O)CCCCC1C(O)(c1ccccc1)c1ccccc1 (centres undefined)
inactive: dose: 12.5 mg/kg/injection, schedule: Q04DX002 (ip), vehicle: saline with Tween-80 97 % of control | dose: 25.0 mg/kg/injection, schedule: Q04DX002 (ip), vehicle: saline with Tween-80 102 % of control | dose: 50.0 mg/kg/injection, schedule: Q04DX002 (ip), vehicle: saline with Tween-80 94 % of control

O=C(NCc1cccnc1)c1ccccc1N=Cc1cc(Cl)cc(Cl)c1O
inactive: [5] 98 % of control | [8] 96 % of control | [14] 89 % of control

Cc1ccc(S(=O)(=O)Nc2ccc(C#N)c3ccccc23)cc1
inactive: [18] 92 % of control | [12] 90 % of control | [19] 89 % of control | [13] 95 % of control | dose: 400.0 mg/kg/injection, schedule: Q01DX009 (ip), vehicle: saline with Tween-80 89 % of control | [15] 87 % of control

O=C(Nc1ccccc1)N1CC12CCCCC2
inactive: [6] 104 % of control | [8] 98 % of control | [9] 110 % of control | [14] 95 % of control | [11] 100 % of control

CCCCOc1ccc(OCCCCCCCCCC[N+](C)(C)C)cc1
inactive: dose: 1.56 mg/kg/injection, schedule: Q04DX002 (ip), vehicle: saline 103 % of control | dose: 3.13 mg/kg/injection, schedule: Q04DX002 (ip), vehicle: saline 96 % of control | dose: 6.25 mg/kg/injection, schedule: Q04DX002 (ip), vehicle: saline 96 % of control | dose: 12.5 mg/kg/injection, schedule: Q04DX002 (ip), vehicle: saline 97 % of control and 122 % of control

CCC(=O)N(N=O)c1ccccc1
inactive: dose: 18.8 mg/kg/injection, schedule: Q01DX001 (ip), vehicle: saline 91 % of control

CCCCCCCCCCCCCCCCCC(=O)OCC1(COC(=O)CCCCCCCCCCCCCCCCC)COC(CCCCCCCCCCCCCCCCC)=N1
inactive: [4] 92 % of control | [7] 95 % of control | [10] 109 % of control

N#C/C(=C/c1cc(Cl)ccc1O)C(N)=O
inactive: [5] 102 % of control | [8] 95 % of control | [14] 100 % of control

Nc1ccn(C2OC(COC(c3ccccc3)(c3ccccc3)c3ccccc3)C(O)C2O)c(=O)n1 (centres undefined)
inactive: dose: 100.0 mg/kg/injection, schedule: Q01DX005 (ip), vehicle: saline 101 % of control | dose: 200.0 mg/kg/injection, schedule: Q01DX005 (ip), vehicle: saline 112 % of control

COc1ccc(S(=O)O)cc1NC(C)=O
inactive: dose: 100.0 mg/kg/injection, schedule: Q01DX001 (ip), vehicle: saline 105 % of control | [16] 94 % of control | dose: 100.0 mg/kg/injection, schedule: Q04DX003 (ip), vehicle: saline 92 % of control and 100 % of control | dose: 200.0 mg/kg/injection, schedule: Q01DX001 (ip), vehicle: saline 96 % of control | [17] 87 % of control | dose: 200.0 mg/kg/injection, schedule: Q04DX003 (ip), vehicle: saline 93 % of control and 95 % of control | dose: 400.0 mg/kg/injection, schedule: Q01DX001 (ip), vehicle: saline 98 % of control | dose: 400.0 mg/kg/injection, schedule: Q01DX009 (ip), vehicle: saline 86 % of control | dose: 400.0 mg/kg/injection, schedule: Q04DX003 (ip), vehicle: saline 91 % of control and 93 % of control

O=Cc1[nH]c(=S)[nH]c(=O)c1Cc1c(Cl)cccc1Cl
inactive: dose: 100.0 mg/kg/injection, schedule: Q01DX001 (ip), vehicle: saline with Tween-80 101 % of control | dose: 200.0 mg/kg/injection, schedule: Q01DX001 (ip), vehicle: saline with Tween-80 101 % of control | dose: 400.0 mg/kg/injection, schedule: Q01DX001 (ip), vehicle: saline with Tween-80 106 % of control

O=NN(CCCCl)C(=O)Nc1ccc(NC(=O)N(CCCCl)N=O)cc1
inactive: dose: 12.5 mg/kg/injection, schedule: Q01DX001 (ip), vehicle: carboxymethylcellulose (CMC) 111 % of control | dose: 25.0 mg/kg/injection, schedule: Q01DX001 (ip), vehicle: carboxymethylcellulose (CMC) 109 % of control | dose: 50.0 mg/kg/injection, schedule: Q01DX001 (ip), vehicle: carboxymethylcellulose (CMC) 106 % of control | dose: 100.0 mg/kg/injection, schedule: Q01DX001 (ip), vehicle: carboxymethylcellulose (CMC) 117 % of control | dose: 200.0 mg/kg/injection, schedule: Q01DX001 (ip), vehicle: carboxymethylcellulose (CMC) 111 % of control | dose: 300.0 mg/kg/injection, schedule: Q01DX001 (ip), vehicle: carboxymethylcellulose (CMC) 111 % of control | dose: 400.0 mg/kg/injection, schedule: Q01DX001 (ip), vehicle: carboxymethylcellulose (CMC) 106 % of control | dose: 500.0 mg/kg/injection, schedule: Q01DX001 (ip), vehicle: carboxymethylcellulose (CMC) 106 % of control | dose: 600.0 mg/kg/injection, schedule: Q01DX001 (ip), vehicle: carboxymethylcellulose (CMC) 109 % of control | dose: 800.0 mg/kg/injection, schedule: Q01DX001 (ip), vehicle: carboxymethylcellulose (CMC) 112 % of control | dose: 1000.0 mg/kg/injection, schedule: Q01DX001 (ip), vehicle: carboxymethylcellulose (CMC) 114 % of control

Cc1ccc(CC(=S)N2CCOCC2)cc1
inactive: dose: 100.0 mg/kg/injection, schedule: Q01DX001 (ip), vehicle: steriod suspending solution 95 % of control | dose: 200.0 mg/kg/injection, schedule: Q01DX001 (ip), vehicle: steriod suspending solution 98 % of control | dose: 400.0 mg/kg/injection, schedule: Q01DX001 (ip), vehicle: steriod suspending solution 96 % of control

CC(C)(CO)CCl
inactive: dose: 50.0 mg/kg/injection, schedule: Q01DX009 (ip), vehicle: saline with Tween-80 91 % of control | [18] 95 % of control | [19] 88 % of control

Nc1nc(N)nc(Cl)n1
inactive: dose: 100.0 mg/kg/injection, schedule: Q04DX002 (ip), vehicle: saline with Tween-80 98 % of control | dose: 400.0 mg/kg/injection, schedule: Q04DX002 (ip), vehicle: saline with Tween-80 95 % of control
